Where two headings read alike, the source gives them in different places.
Key:
[1] = test system: NCI-H2122 (NSCLC) xenograft; assay: KRAS G12C-mutated CDX model, single-agent antitumor activity; format: in vivo, mice; details: daily oral doses of 10, 30 and 100 mg/kg
Procedure: (§1) A. Aggregated best tumor growth inhibition in six KRASG12C tumor models. JDQ443 efficacy was evaluated after oral dosing of 10, 30 and 100 mg/kg/day in six human KRAS G12C mutant CDX models in mice. In dark grey NSCLC cell line models are depicted, while in light grey PDAC (MIA Paca-2) and esophageal (KYSE-410) cancer cell line models are shown. Data are means from 2-11 independent in vivo studies. B-G. CDX-bearing mice with KRAS G12C-mutated (C-G) and non-KRAS G12C-mutated (NCI-441, KRASG12V; B) tumors were treated orally with JDQ443 at indicated doses and schedules. G. LU99 tumor-bearing mice were treated with JDQ443 by continuous intravenous infusion using a minipump. H-I. Simulated pop-PKPD metrics (H) daily AUC of JDQ443 in mouse blood and (I) average free KRASG12C levels in tumor at steady state, are correlated with the observed efficacy in LU99 (T/C or % regression). Points correspond to the mean and the error bars to ±1 S.D of the simulated PK/PD metrics based on 100 simulations and observed efficacy metrics.
(§2) Single-agent antitumor activity of JDQ443 at daily oral doses of 10 mg/kg, 30 mg/kg and 100 mg/kg, in a panel of KRAS G12C-mutated CDX models across different indications. Cell lines for xenografting were: MIA PaCa-2 (PDAC); NCI-H2122, LU99, HCC-44, NCI-H2030 (NSCLC); and KYSE410 (esophageal cancer). […] Efficacy was maintained across once- (QD) or twice-daily (BID) administration of the same daily dose: 30 mg/kg QD versus 15 mg/kg BID in MIA PaCa-2 (FIG. 8C), or 100 mg/kg QD versus 50 mg/kg BID in NCI-H2122 and LU99 (FIG. 8D-E).

[2] = test system: NCI-H2030 (NSCLC) xenograft; assay: as above; format: in vivo, mice; details: daily oral doses of 10, 30 and 100 mg/kg
Procedure: as §1, §2

[3] = KontRASt-01 (NCT04699188) clinical pharmacokinetics; format: in vivo; details: human, plasma, oral, Case 2, JDQ443 200 mg QD continuously + TNO155 20 mg QD 2 wk on/1 wk off, JDQ443 exposure
[4] = test system: Ba/F3 cells expressing FLAG-KRAS G12C/H95Q; assay: Ba/F3 proliferation, CellTiter-Glo, 3 days (Example 4); format: cell-based, murine; details: for % growth of treated cells relative to day 3 treatment: H95Q
Procedure: (§3) The parental Ba/F3 cells were cultured in the presence of 5 ng/ml of recombinant murine IL-3 (Life Technologies, #PMC0035).
(§4) The mutant plasmids were transfected into the Ba/F3 WT cells by electroporation with the NEON transfection kit (Invitrogen, #MPK10025).
(§5) Ba/F3 cells are normally dependent on IL-3 to survive and proliferate, however, by expressing oncogenes they are able to switch their dependency from IL-3 to the expressed oncogene. […] Cell number and viability was measured every three days and after seven days the IL-3 withdrawal was completed.
(§6) Treatment was performed on the same day with a Tecan D300e drug dispenser. Viability was detected on the same day of treatment for the start plate (Day 0) and three days post-treatment (Day 3) using the CellTiter-Glo Luminescent Cell Viability Assay (Promega, #G7573) on a Tecan infinitiy M200 Pro reader (Intergration Time 1000 ms).
(§7) To determine the growth, the three days post-treatment (Day 3) readout was normalized to start plate (Day 0). The percentage viability was then calculated by normalizing treated wells to DMSO treated control samples. XLfit was used to make the fitted curve with a Sigmoidal Dose-Response Model (four-parameter curve) (FIG. 9).

[5] = test system: Ba/F3 cells expressing FLAG-KRAS G12C/R68S; assay: as above; format: cell-based, murine
Procedure: as §3, §4, §5, §6, §7

[6] = test system: Ba/F3 cells expressing FLAG-KRAS^G12C; assay: as above; format: cell-based, murine; details: for GI50: Mus musculus
Procedure: as §3, §4, §5, §6, §7

[7] = test system: Ba/F3 cells expressing FLAG-KRAS G12C/Y96D; assay: as above; format: cell-based, murine
Procedure: as §3, §4, §5, §6, §7

[8] = test system: Ba/F3 cells expressing FLAG-KRAS G12C/Y96C; assay: as above; format: cell-based, murine
Procedure: as §3, §4, §5, §6, §7

[9] = test system: Ba/F3 cells expressing FLAG-KRAS G12C/H95R; assay: as above; format: cell-based, murine
Procedure: as §3, §4, §5, §6, §7

[10] = test system: Ba/F3 cells expressing FLAG-KRAS G12C/H95D; assay: as above; format: cell-based, murine; details: for % growth of treated cells relative to day 3 treatment: H95D
Procedure: as §3, §4, §5, §6, §7

## C=CC(=O)N1CC2(CC(n3nc(-c4ccc5c(cnn5C)c4)c(-c4c(Cl)c(C)cc5[nH]ncc45)c3C)C2)C1 (single isomer, unassigned) [Compound A, 1-{6-[(4M)-4-(5-Chloro-6-methyl-1H-indazol-4-yl)-5-methyl-3-(1-methyl-1H-indazol-5-yl)-1H-pyrazol-1-yl]-2-azaspiro[3.3]heptan-2-yl}prop-2-en-1-one]
[1]
  maximal response pattern: stasis
[2]
  maximal response pattern: moderate tumor inhibition
[3]
  Cmax: 5270 ng/mL
  Tmax: 3.2 h
[3]; read-out: AUC0-24 h
  AUC(0-t): 55700 ng·h/mL
[4]; conc 0.000457 μM
  % growth of treated cells relative to day 3 treatment: 100.054%
[4]; conc 0.001372 μM
  % growth of treated cells relative to day 3 treatment: 93.606%
[4]; conc 0.004115 μM
  % growth of treated cells relative to day 3 treatment: 103.375%
[4]; conc 0.012346 μM
  % growth of treated cells relative to day 3 treatment: 95.722%
[4]; conc 0.037037 μM
  % growth of treated cells relative to day 3 treatment: 93.319%
[4]; conc 0.111111 μM
  % growth of treated cells relative to day 3 treatment: 71.333%
[4]; conc 0.333333 μM
  % growth of treated cells relative to day 3 treatment: 36.908%
[4]; conc 1 μM
  % growth of treated cells relative to day 3 treatment: 6.635%
[4]; Mus musculus, BaF3, 72 h, G12C/H95Q, 3 days, average of 4 independent experiments
  GI50: 284 ± 41 nM
[5]; conc 0.000457 μM
  % growth of treated cells relative to day 3 treatment: 100.931%
[5]; conc 0.001372 μM
  % growth of treated cells relative to day 3 treatment: 103.390%
[5]; conc 0.004115 μM
  % growth of treated cells relative to day 3 treatment: 100.329%
[5]; conc 0.012346 μM
  % growth of treated cells relative to day 3 treatment: 104.608%
[5]; conc 0.037037 μM
  % growth of treated cells relative to day 3 treatment: 108.276%
[5]; conc 0.111111 μM
  % growth of treated cells relative to day 3 treatment: 103.721%
[5]; conc 0.333333 μM
  % growth of treated cells relative to day 3 treatment: 93.111%
[5]; conc 1 μM
  % growth of treated cells relative to day 3 treatment: 69.159%
[6]; G12C, conc 0.000457 μM
  % growth of treated cells relative to day 3 treatment: 95.501%
[6]; G12C, conc 0.001372 μM
  % growth of treated cells relative to day 3 treatment: 97.516%
[6]; G12C, conc 0.004115 μM
  % growth of treated cells relative to day 3 treatment: 93.832%
[6]; G12C, conc 0.012346 μM
  % growth of treated cells relative to day 3 treatment: 89.361%
[6]; G12C, conc 0.037037 μM
  % growth of treated cells relative to day 3 treatment: 72.785%
[6]; G12C, conc 0.111111 μM
  % growth of treated cells relative to day 3 treatment: 44.204%
[6]; G12C, conc 0.333333 μM
  % growth of treated cells relative to day 3 treatment: 20.252%
[6]; G12C, conc 1 μM
  % growth of treated cells relative to day 3 treatment: 4.279%
[6]; BaF3, 72 h, G12C, 3 days, average of 4 independent experiments, read-out: GI50 ± St DV
  GI50: 115 ± 60 nM
[6]; BaF3, KRAS G12C, read-out: GI50
  GI50: 115 ± 60 nM
[7]; conc 0.000457 μM
  % growth of treated cells relative to day 3 treatment: 100.903%
[7]; conc 0.001372 μM
  % growth of treated cells relative to day 3 treatment: 102.224%
[7]; conc 0.004115 μM
  % growth of treated cells relative to day 3 treatment: 98.191%
[7]; conc 0.012346 μM
  % growth of treated cells relative to day 3 treatment: 106.613%
[7]; conc 0.037037 μM
  % growth of treated cells relative to day 3 treatment: 103.946%
[7]; conc 0.111111 μM
  % growth of treated cells relative to day 3 treatment: 105.866%
[7]; conc 0.333333 μM
  % growth of treated cells relative to day 3 treatment: 97.260%
[7]; conc 1 μM
  % growth of treated cells relative to day 3 treatment: 90.864%
[8]; conc 0.000457 μM
  % growth of treated cells relative to day 3 treatment: 109.116%
[8]; conc 0.001372 μM
  % growth of treated cells relative to day 3 treatment: 102.424%
[8]; conc 0.004115 μM
  % growth of treated cells relative to day 3 treatment: 105.515%
[8]; conc 0.012346 μM
  % growth of treated cells relative to day 3 treatment: 96.167%
[8]; conc 0.037037 μM
  % growth of treated cells relative to day 3 treatment: 104.222%
[8]; conc 0.111111 μM
  % growth of treated cells relative to day 3 treatment: 102.592%
[8]; conc 0.333333 μM
  % growth of treated cells relative to day 3 treatment: 91.765%
[8]; conc 1 μM
  % growth of treated cells relative to day 3 treatment: 80.229%
[9]; conc 0.000457 μM
  % growth of treated cells relative to day 3 treatment: 103.118%
[9]; conc 0.001372 μM
  % growth of treated cells relative to day 3 treatment: 92.517%
[9]; conc 0.004115 μM
  % growth of treated cells relative to day 3 treatment: 83.996%
[9]; conc 0.012346 μM
  % growth of treated cells relative to day 3 treatment: 66.971%
[9]; conc 0.037037 μM
  % growth of treated cells relative to day 3 treatment: 52.178%
[9]; conc 0.111111 μM
  % growth of treated cells relative to day 3 treatment: 23.425%
[9]; conc 0.333333 μM
  % growth of treated cells relative to day 3 treatment: 5.323%
[9]; conc 1 μM
  % growth of treated cells relative to day 3 treatment: 0.321%
[10]; conc 0.000457 μM
  % growth of treated cells relative to day 3 treatment: 96.429%
[10]; conc 0.001372 μM
  % growth of treated cells relative to day 3 treatment: 91.567%
[10]; conc 0.004115 μM
  % growth of treated cells relative to day 3 treatment: 90.379%
[10]; conc 0.012346 μM
  % growth of treated cells relative to day 3 treatment: 97.783%
[10]; conc 0.037037 μM
  % growth of treated cells relative to day 3 treatment: 102.308%
[10]; conc 0.111111 μM
  % growth of treated cells relative to day 3 treatment: 88.358%
[10]; conc 0.333333 μM
  % growth of treated cells relative to day 3 treatment: 68.199%
[10]; conc 1 μM
  % growth of treated cells relative to day 3 treatment: 28.569%
[10]; Mus musculus, BaF3, 72 h, G12C/H95D, 3 days, average of 4 independent experiments
  GI50: 612 ± 151 nM

From patent US20240366567A1, “PHARMACEUTICAL COMBINATIONS COMPRISING A KRAS G12C INHIBITOR AND USES THEREOF FOR THE TREATMENT OF CANCERS” (NOVARTIS AG, priority 2021, published 2024)
